Reference: ChEMBL document CHEMBL5465560, “Selectivity Literature for EUbOPEN Chemogenomic Library” (2024)

Key:
[1] = target: T1, Discoidin domain-containing receptor 2 (Homo sapiens) (UniProt Q16832); experiment: Selectivity interaction (KinomeScan (DiscoverX)) EUB0000092b DDR2; conditions: at 10 µM
T1 sequence (whole entry): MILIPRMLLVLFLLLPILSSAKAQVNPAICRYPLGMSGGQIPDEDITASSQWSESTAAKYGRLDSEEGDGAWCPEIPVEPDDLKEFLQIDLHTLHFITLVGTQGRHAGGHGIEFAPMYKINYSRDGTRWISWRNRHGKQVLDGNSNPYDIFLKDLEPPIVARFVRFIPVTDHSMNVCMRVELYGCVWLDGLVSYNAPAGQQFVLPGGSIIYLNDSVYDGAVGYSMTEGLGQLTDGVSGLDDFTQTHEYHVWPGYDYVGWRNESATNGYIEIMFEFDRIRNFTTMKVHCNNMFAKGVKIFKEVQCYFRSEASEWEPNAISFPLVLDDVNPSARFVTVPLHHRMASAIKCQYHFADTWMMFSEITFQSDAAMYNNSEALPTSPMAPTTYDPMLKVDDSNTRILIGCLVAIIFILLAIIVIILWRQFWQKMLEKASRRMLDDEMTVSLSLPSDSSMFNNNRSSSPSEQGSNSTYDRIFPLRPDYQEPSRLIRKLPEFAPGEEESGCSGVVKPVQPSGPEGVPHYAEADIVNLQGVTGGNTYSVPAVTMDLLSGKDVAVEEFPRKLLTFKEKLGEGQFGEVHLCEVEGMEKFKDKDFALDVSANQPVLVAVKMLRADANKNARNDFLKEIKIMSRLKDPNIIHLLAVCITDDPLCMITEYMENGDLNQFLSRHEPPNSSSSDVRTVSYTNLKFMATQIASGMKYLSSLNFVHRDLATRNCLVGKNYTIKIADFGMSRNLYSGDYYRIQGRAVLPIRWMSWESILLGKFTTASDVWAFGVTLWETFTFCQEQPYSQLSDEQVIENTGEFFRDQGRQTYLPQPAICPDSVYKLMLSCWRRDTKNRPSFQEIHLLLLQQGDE

[2] = target: [Pyruvate dehydrogenase (acetyl-transferring)] kinase isozyme 1, mitochondrial (Homo sapiens, UniProt Q15118); experiment: Selectivity interaction (Upstate Kinase Profiler service (Millipore)) EUB0000056c PDK1; conditions: at 1 µM
[3] = target: T2, Serine/threonine-protein kinase Nek9 (Homo sapiens) (UniProt Q8TD19); experiment: Selectivity interaction (KinomeScan (DiscoverX)) EUB0000655a NEK9; conditions: at 10 µM
T2 sequence (whole entry): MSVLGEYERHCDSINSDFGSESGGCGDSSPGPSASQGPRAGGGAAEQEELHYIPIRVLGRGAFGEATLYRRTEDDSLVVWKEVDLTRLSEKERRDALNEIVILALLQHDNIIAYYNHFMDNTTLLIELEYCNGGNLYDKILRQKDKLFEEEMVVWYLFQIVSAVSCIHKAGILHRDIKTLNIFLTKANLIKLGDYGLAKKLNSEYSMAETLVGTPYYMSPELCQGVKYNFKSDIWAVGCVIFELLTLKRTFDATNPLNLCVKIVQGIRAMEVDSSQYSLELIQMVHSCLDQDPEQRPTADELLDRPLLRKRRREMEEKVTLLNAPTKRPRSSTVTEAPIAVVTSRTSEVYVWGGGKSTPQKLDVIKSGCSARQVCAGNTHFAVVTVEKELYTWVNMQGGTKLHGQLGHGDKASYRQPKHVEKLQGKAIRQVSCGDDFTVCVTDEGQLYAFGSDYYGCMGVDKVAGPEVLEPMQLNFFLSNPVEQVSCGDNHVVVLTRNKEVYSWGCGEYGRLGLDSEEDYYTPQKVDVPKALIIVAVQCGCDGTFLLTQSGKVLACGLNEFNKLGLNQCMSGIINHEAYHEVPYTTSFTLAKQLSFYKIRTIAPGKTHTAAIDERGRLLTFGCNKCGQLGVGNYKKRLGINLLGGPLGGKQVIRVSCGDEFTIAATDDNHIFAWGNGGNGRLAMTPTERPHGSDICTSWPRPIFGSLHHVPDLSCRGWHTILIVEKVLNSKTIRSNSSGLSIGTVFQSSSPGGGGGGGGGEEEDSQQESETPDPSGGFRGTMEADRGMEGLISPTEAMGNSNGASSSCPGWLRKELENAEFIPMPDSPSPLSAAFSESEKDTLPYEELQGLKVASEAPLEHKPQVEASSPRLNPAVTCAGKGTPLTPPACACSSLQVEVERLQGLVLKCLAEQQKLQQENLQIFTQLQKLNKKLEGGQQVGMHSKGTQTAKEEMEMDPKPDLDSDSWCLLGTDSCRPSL

[4] = target: Fibroblast growth factor receptor 3 (Homo sapiens, UniProt P22607); experiment: Selectivity interaction (ProQinase) EUB0000171b FGFR3; conditions: at 1 µM
[5] = target: Calcium/calmodulin-dependent protein kinase kinase 1 (Homo sapiens) (UniProt Q8N5S9); conditions: at 10 µM
[6] = target: Phosphatidylinositol 4-phosphate 5-kinase type-1 gamma (Homo sapiens) (UniProt O60331); experiment: Selectivity interaction (KinomeScan (DiscoverX)) EUB0000695a PIP5K1C; conditions: at 100 nM
[7] = target: Cholecystokinin receptor type A (Homo sapiens) (UniProt P32238); experiment: Selectivity interaction (Eurofins CEREP Diversity Profile (receptors and ion channels)) EUB0000279b CCKAR; conditions: at 10 µM
[8] = target: T3, Non-receptor tyrosine-protein kinase TNK1 (Homo sapiens) (UniProt Q13470); experiment: Selectivity interaction (KinomeScan (DiscoverX)) EUB0001619a TNK1; conditions: at 1 µM
T3 sequence (whole entry): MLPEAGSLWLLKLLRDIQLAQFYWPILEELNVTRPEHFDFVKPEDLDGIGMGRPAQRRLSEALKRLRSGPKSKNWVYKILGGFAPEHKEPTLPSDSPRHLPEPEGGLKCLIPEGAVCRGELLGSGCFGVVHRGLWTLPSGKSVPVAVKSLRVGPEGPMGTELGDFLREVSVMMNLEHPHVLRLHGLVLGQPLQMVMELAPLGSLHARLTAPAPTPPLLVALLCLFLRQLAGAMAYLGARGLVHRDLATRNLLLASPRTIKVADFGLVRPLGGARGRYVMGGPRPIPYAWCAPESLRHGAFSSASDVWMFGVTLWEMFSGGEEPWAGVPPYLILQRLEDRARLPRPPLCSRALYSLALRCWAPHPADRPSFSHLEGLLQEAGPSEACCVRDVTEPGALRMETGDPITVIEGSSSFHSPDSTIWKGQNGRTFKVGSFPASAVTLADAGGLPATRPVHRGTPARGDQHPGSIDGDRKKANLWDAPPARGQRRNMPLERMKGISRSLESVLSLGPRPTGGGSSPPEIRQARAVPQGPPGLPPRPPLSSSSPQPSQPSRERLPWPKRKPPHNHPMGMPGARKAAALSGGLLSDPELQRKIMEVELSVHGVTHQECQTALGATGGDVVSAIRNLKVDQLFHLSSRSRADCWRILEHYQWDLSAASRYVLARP

Chain of Phosphatidylinositol 4-phosphate 5-kinase type-1 gamma (Homo sapiens) (O60331 whole entry): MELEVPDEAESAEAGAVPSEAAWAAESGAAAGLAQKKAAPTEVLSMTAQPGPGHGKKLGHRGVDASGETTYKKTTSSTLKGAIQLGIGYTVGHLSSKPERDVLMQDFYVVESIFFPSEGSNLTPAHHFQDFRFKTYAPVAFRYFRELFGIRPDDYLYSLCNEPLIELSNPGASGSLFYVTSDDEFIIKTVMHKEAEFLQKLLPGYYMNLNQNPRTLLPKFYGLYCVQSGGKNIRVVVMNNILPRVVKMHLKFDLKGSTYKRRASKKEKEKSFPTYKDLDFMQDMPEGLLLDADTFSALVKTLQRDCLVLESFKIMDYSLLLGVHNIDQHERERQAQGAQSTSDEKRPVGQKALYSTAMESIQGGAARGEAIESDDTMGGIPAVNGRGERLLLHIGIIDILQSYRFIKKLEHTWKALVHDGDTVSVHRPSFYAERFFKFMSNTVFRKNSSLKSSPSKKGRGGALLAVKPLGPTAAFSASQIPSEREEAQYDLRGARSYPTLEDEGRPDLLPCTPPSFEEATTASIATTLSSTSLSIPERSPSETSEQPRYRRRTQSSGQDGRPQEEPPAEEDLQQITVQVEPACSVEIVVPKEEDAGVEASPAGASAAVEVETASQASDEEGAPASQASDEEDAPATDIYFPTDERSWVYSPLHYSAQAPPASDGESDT
Chain of Cholecystokinin receptor type A (Homo sapiens) (P32238 whole entry): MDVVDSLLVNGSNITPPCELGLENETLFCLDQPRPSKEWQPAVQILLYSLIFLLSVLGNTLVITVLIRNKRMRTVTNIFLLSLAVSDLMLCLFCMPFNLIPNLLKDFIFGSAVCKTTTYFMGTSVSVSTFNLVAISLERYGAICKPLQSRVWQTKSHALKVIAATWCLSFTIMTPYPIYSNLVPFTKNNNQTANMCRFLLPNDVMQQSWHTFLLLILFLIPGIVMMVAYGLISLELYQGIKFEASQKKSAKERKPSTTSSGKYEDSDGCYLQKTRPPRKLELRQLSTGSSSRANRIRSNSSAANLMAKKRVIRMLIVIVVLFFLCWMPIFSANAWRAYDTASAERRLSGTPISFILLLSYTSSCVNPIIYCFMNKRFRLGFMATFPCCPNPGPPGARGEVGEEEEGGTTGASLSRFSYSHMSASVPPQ
Chain of Calcium/calmodulin-dependent protein kinase kinase 1 (Homo sapiens) (Q8N5S9 whole entry, looked up): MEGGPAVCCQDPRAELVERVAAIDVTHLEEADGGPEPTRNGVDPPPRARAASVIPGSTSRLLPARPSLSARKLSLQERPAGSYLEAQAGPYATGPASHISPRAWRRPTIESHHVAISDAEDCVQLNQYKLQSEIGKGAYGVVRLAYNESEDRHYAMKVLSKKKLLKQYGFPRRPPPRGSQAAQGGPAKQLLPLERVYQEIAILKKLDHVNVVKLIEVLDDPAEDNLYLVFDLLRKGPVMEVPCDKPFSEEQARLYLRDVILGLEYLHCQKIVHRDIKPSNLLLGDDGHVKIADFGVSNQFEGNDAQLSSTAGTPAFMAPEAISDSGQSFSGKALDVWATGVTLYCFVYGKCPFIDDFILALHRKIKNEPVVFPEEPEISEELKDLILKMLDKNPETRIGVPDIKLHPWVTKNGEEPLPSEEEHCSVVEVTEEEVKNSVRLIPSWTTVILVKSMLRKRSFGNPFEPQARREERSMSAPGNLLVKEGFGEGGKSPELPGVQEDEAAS
Chain of Fibroblast growth factor receptor 3 (P22607 23-806 limits assumed): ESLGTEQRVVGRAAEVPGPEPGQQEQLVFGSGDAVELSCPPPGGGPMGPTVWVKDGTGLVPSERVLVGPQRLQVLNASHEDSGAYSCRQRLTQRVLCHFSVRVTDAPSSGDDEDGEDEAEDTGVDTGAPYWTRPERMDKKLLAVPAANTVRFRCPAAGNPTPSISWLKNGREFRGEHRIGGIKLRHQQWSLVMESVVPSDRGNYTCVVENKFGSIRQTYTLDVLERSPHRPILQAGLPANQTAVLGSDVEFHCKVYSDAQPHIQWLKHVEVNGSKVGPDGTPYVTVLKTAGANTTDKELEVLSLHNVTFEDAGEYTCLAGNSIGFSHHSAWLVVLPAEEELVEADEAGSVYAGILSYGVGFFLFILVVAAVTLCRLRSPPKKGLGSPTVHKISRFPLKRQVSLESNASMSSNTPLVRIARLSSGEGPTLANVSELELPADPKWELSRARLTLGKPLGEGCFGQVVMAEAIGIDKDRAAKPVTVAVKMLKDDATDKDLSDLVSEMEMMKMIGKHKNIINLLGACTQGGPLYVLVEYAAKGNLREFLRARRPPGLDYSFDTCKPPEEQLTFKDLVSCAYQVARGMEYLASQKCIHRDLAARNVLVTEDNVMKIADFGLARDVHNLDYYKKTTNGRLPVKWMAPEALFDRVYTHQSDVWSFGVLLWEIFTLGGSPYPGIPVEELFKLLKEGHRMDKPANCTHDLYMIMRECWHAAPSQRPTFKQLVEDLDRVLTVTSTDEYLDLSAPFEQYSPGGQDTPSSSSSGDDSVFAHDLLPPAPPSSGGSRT

## CCC(=O)N1CCN(c2ccc(-n3c(=O)ccc4cnc5ccc(-c6cnc7ccccc7c6)cc5c43)cc2C(F)(F)F)CC1
[1]
  % of control: 100%

## Cc1ccc(-c2ccc3c(ccc4sc5c(c43)NC[C@@H](C)NC5=O)n2)cn1
[2]
  % of inhibition: 0%

## CN(C)CCOc1ccc(-c2nc(-c3ccncc3)c(-c3ccc4c(c3)CC/C4=N\O)[nH]2)cc1
[3]
  % of control: 100%

## C=CC(=O)Nc1cccc(C(=O)Nc2ccc(Nc3cc(-c4[nH]c(SC)nc4C)ccn3)cc2)c1
[4]
  % of control: 88%

## Cc1cc([C@@H](C)Nc2ccccc2C(=O)O)c2nc(N3CCOCC3)cc(=O)n2c1 [AZD-6482]
[5]
  % of control: 98%

## Cc1cc(F)c(C(=O)Nc2cccc(-c3nncn3C(C)C)n2)cc1-n1cnc(C2CC2)c1
[6]
  % of control: 100%

## CC(=O)c1cc(-c2ccccc2OCC2CC2)c2ncccn12
[7]
  % of control: 116%

## N#Cc1cccc(-c2c[nH]c3ncnc(N4CCOCC4)c23)c1
[8]
  % of control: 32%
